Experimental findings from patent publication US20060241172A1, “Benzodioxane and benzodioxolane derivatives and uses thereof” (Wyeth, priority 2005, published 2006) are described below.

Where a name gives a salt, the structure may show the parent alone.

`COc1ccccc1-c1cccc2c1O[C@@](C)(CN)CO2` (as salt: fumarate) [Compound I-52, {[(2S)-8-(2-Methoxyphenyl)-2-methyl-2,3-dihydro-1,4-benzodioxin-2-yl]methyl}amine] registered a melting point of 128 to 131 °C.
`C[C@]1(CN)COc2cccc(-c3ccsc3)c2O1` (as salt: fumarate) [Compound I-53, {[(2S)-2-Methyl-8-thien-3-yl-2,3-dihydro-1,4-benzodioxin-2-yl]methyl}amine] yielded a melting point of 158 to 161 °C.
As to `NC[C@H]1COc2cccc(-c3ccccc3Cl)c2O1` (as salt: fumarate) [Compound I-56, 1-[(2S)-8-(2-CHLOROPHENYL)-2,3-DIHYDRO-1,4-BENZODIOXIN-2-YL]METHANAMINE], the melting point lay within 200 to 201 °C.
`NC[C@H]1COc2cccc(-c3ccccc3C(F)(F)F)c2O1` (as salt: fumarate) [Compound I-57, 1-{(2S)-8-[2-(trifluoromethyl)phenyl]-2,3-dihydro-1,4-benzodioxin-2-yl}methanamine] displayed a melting point of 205 to 206 °C.
On to `NC[C@H]1COc2cc(Cl)cc(-c3ccccc3Cl)c2O1` (as salt: hydrochloride) [Compound I-58, (2S)-[6-Chloro-8-(2-chloro-phenyl)-2,3-dihydro-benzo[1,4]dioxin-2-yl]-methylamine], for which the melting point was in the range of 228 to 230 °C.
In the case of `NC[C@H]1COc2cc(Cl)cc(-c3ccccc3F)c2O1` (as salt: hydrochloride) [Compound I-59, (2S)-[6-Chloro-8-(2-fluoro-phenyl)-2,3-dihydro-benzo[1,4]dioxin-2-yl]-methylamine], the melting point was in the range of 176 to 178 °C.
With `Cc1ccccc1-c1cc(Cl)cc2c1O[C@@H](CN)CO2` (as salt: hydrochloride) [Compound I-60, (2S)-[6-Chloro-8-(2-methyl-phenyl)-2,3-dihydro-benzo[1,4]dioxin-2-yl]-methylamine], the melting point is greater than 245 °C.
In turn, `COc1ccccc1-c1cc(Cl)cc2c1O[C@@H](CN)CO2` (as salt: hydrochloride) [Compound I-61, (2S)-[6-Chloro-8-(2-methoxy-phenyl)-2,3-dihydro-benzo[1,4]dioxin-2-yl]-methylamine] had a melting point of 188 to 189 °C.
Compound `NC[C@H]1COc2cc(Cl)cc(-c3ccccc3C(F)(F)F)c2O1` (as salt: hydrochloride) [Compound I-62, (2S)-[6-Chloro-8-(2-trifluoromethyl-phenyl)-2,3-dihydro-benzo[1,4]dioxin-2-yl]-methylamine] showed a melting point of 231 to 233 °C.
The compound `COc1cccc(-c2cc(Cl)cc3c2O[C@@H](CN)CO3)c1OC` (as salt: hydrochloride) [Compound I-63, (2S)-[6-Chloro-8-(2,3-dimethoxy-phenyl)-2,3-dihydro-benzo[1,4]dioxin-2-yl]-methyl amine] registered a melting point of 197 to 199 °C.
For the compound `NC[C@H]1COc2cc(Cl)cc(-c3ccc(Cl)cc3Cl)c2O1` (as salt: hydrochloride) [Compound I-64, (2S)-[6-Chloro-8-(2,4-dichloro-phenyl)-2,3-dihydro-benzo[1,4]dioxin-2-yl]-methyl amine], the melting point worked out at 140 °C.
To `Cc1cc(Cl)ccc1-c1cc(Cl)cc2c1O[C@@H](CN)CO2` (as salt: hydrochloride) [Compound I-65, (2S)-[6-Chloro-8-(4-chloro-2-methyl-phenyl)-2,3-dihydro-benzo[1,4]dioxin-2-yl]-methylamine] belongs 110 °C; to `NC[C@H]1COc2cc(Cl)cc(-c3cc(Cl)ccc3Cl)c2O1` (as salt: hydrochloride) [Compound I-67, (2S)-[6-Chloro-8-(2,5-dichloro-phenyl)-2,3-dihydro-benzo[1,4]dioxin-2-yl]-methyl amine], 205 to 207 °C.
`COc1ccc(Cl)cc1-c1cc(Cl)cc2c1O[C@@H](CN)CO2` (as salt: hydrochloride) [Compound I-68, (2S)-[6-Chloro-8-(5-chloro-2-methoxy-phenyl)-2,3-dihydro-benzo[1,4]dioxin-2-yl]-methylamine] displayed a melting point of 230 to 232 °C.
As for `Cc1cccc(C)c1-c1cc(Cl)cc2c1O[C@@H](CN)CO2` (as salt: hydrochloride) [Compound I-69, (2S)-[6-Chloro-8-(2,6-dimethyl-phenyl)-2,3-dihydro-benzo[1,4]dioxin-2-yl]-methyl amine], the melting point was 220 to 222 °C.
To `NC[C@H]1COc2ccc(Cl)c(-c3ccccc3Cl)c2O1` (as salt: hydrochloride) [Compound I-70, (2S)-[7-Chloro-8-(2-chloro-phenyl)-2,3-dihydro-benzo[1,4]dioxin-2-yl]-methylamine] belongs 105 °C; to `NC[C@H]1COc2ccc(F)c(-c3ccccc3Cl)c2O1` (as salt: hydrochloride) [Compound I-71, (2S)-[8-(2-Chloro-phenyl)-7-fluoro-2,3-dihydro-benzo[1,4]dioxin-2-yl]-methylamine], 208 to 210 °C.
Consider `NC[C@H]1COc2ccc(F)c(-c3ccc(Cl)cc3Cl)c2O1` (as salt: hydrochloride) [Compound I-75, ((2S)-7-Fluoro-8-(2,4-di-chloro-phenyl)-2,3-dihydrobenzo[b][1,4]dioxin-2-yl) methanamine], for which the melting point turned out to be 65 °C.
Turning to `COc1ccccc1-c1cc(F)cc2c1OC(CN)O2` (stereo not drawn) (as salt: hydrochloride) [Compound I-76, 1-[6-Fluoro-4-(2-methoxyphenyl)-1,3-benzodioxol-2-yl]methanamine], the melting point is 184 to 186 °C.
The compound `NCC1Oc2cc(F)cc(-c3ccccc3)c2O1` (stereo not drawn) (as salt: hydrochloride) [Compound I-77, 1-(6-Fluoro-4-phenyl-1,3-benzodioxol-2-yl)methanamine] yielded a melting point of 227 to 229 °C.
To `NCC1Oc2cc(F)cc(-c3cccc(Cl)c3)c2O1` (stereo not drawn) (as salt: hydrochloride) [Compound I-78, 1-[4-(3-Chlorophenyl)-6-fluoro-1,3-benzodioxol-2-yl]methanamine] belongs 267 to 270 °C; to `NCC1Oc2cc(F)cc(-c3ccc(Cl)cc3)c2O1` (stereo not drawn) (as salt: hydrochloride) [Compound I-79, 1-[4-(4-Chloro-phenyl)-6-fluoro-1,3-benzodioxol-2-yl]methanamine], 262 to 264 °C.
`Cc1ccccc1-c1cc(F)cc2c1OC(CN)O2` (stereo not drawn) (as salt: hydrochloride) [Compound I-80, 1-[4-(2-Methyl-phenyl)-6-fluoro-1,3-benzodioxol-2-yl]methanamine] gave a melting point of 197 to 200 °C.
On to `NCC1Oc2cc(F)cc(-c3cc(Cl)ccc3Cl)c2O1` (stereo not drawn) (as salt: hydrochloride) [Compound I-81, 1-[4-(2,5-Dichloro-phenyl)-6-fluoro-1,3-benzodioxol-2-yl]methanamine], for which the melting point fell in the range of 204 to 205 °C.
Take `NCC1Oc2cc(F)cc(-c3ccccc3C(F)(F)F)c2O1` (stereo not drawn) (as salt: hydrochloride) [Compound I-82, 1-[4-(2-Trifluoromethyl-phenyl)-6-fluoro-1,3-benzodioxol-2-yl]methanamine]: the melting point lay within 178 to 180 °C.
`NCC1Oc2cc(F)cc(-c3ccccc3F)c2O1` (stereo not drawn) (as salt: hydrochloride) [Compound I-83, 1-[4-(2-Fluoro-phenyl)-6-fluoro-1,3-benzodioxol-2-yl]methanamine] returned a melting point of 234 to 235 °C.
For `NCC1Oc2cc(F)cc(-c3ccccc3Cl)c2O1` (stereo not drawn) (as salt: hydrochloride) [Compound I-84, 1-[4-(2-Chloro-phenyl)-6-fluoro-1,3-benzodioxol-2-yl]methanamine], the melting point is 192 to 194 °C.
Under `NC[C@H]1Oc2cc(F)cc(-c3c(Cl)cccc3Cl)c2O1` (as salt: hydrochloride) [Compound I-85, 1-[(2S)-4-(2,6-dichlorophenyl)-6-fluoro-1,3-benzodioxol-2-yl]methanamine] stands 224 to 225 °C; under `NC[C@@H]1Oc2cc(F)cc(-c3c(Cl)cccc3Cl)c2O1` (as salt: hydrochloride) [Compound I-86, 1-[(2R)-4-(2,6-dichlorophenyl)-6-fluoro-1,3-benzodioxol-2-yl]methanamine], 206 to 208 °C; under `CNCC1Oc2cc(F)cc(-c3ccccc3Cl)c2O1` (stereo not drawn) (as salt: hydrochloride) [Compound I-87, 1-[4-(2-Chlorophenyl)-6-fluoro-1,3-benzodioxol-2-yl]-N-methylmethanamine], 132 to 134 °C.
To `CCNCC1Oc2cc(F)cc(-c3ccccc3Cl)c2O1` (stereo not drawn) (as salt: hydrochloride) [Compound I-88, N-{[4-(2-Chlorophenyl)-6-fluoro-1,3-benzodioxol-2-yl]methyl}ethanamine] belongs 182 to 183 °C; to `CN(C)CC1Oc2cc(F)cc(-c3ccccc3Cl)c2O1` (stereo not drawn) (as salt: hydrochloride) [Compound I-89, 1-[4-(2-chlorophenyl)-6-fluoro-1,3-benzodioxol-2-yl]-N,N-dimethylmethanamine], 211 to 212 °C.
For the compound `NCC1Oc2cc(Cl)cc(-c3ccccc3Cl)c2O1` (stereo not drawn) (as salt: hydrochloride) [Compound I-90, [6-Chloro-4-(2-chloro-phenyl)-benzo[1,3]dioxol-2-yl]-methylamine], the melting point is greater than 250 °C.
`Cc1ccccc1-c1cc(Cl)cc2c1OC(CN)O2` (stereo not drawn) (as salt: hydrochloride) [Compound I-91, [6-Chloro-4-(2-methyl-phenyl)-benzo[1,3]dioxol-2-yl]-methylamine] returned a melting point greater than 250 °C.
`COc1ccccc1-c1cc(Cl)cc2c1OC(CN)O2` (stereo not drawn) (as salt: hydrochloride) [Compound I-92, [6-Chloro-4-(2-methoxy-phenyl)-benzo[1,3]dioxol-2-yl]-methylamine] displayed a melting point of 245 to 246 °C.
In the case of `COc1ccc(Cl)cc1-c1cc(Cl)cc2c1OC(CN)O2` (stereo not drawn) (as salt: hydrochloride) [Compound I-94, [6-Chloro-4-(2-methoxy-5-chloro-phenyl)-benzo[1,3]dioxol-2-yl]-methylamine], the melting point was 228 to 230 °C.

For orientation: melting point means the temperature, or range, at which the solid turns liquid.
